# Reference: US20230302036A1, “COMPOSITIONS FOR TREATMENT OF SPINAL MUSCULAR ATROPHY” (priority 2020, published 2023)
# Oligonucleotides are written 5' to 3', each unit as a sugar letter and its base; * is a phosphorothioate linkage, no mark a phosphodiester; rarer units and linkages stand in square brackets, end groups in braces. Plain capitals give the bases only. e = 2'-O-(2-methoxyethyl) (MOE); [5mC] = 5-methylcytosine
# Assays:
# [1] = tested on: SMA; conditions: VPA plus carnitine; cited from earlier work
# [2] = tested on: total RNAPII along the human SMN2 transgene; experiment: ChIP-qPCR of total RNAPII along the human SMN2 transgene in brain and liver of P7 SMA mice; type: in vivo, mouse; conditions: P7 SMA mice injected with ASO1
# Method: (§1) H3K9me2 (left) and total RNAPII (right) distribution along the human SMN2 transgene, assessed by ChIP-qPCR, in brain (FIG. 12A) and liver (FIG. 12B) of P7 SMA mice injected with ASO1. Vertical arrows indicate the approximate location of the target site for ASO1 on the pre-mRNA. Three independent immunoprecipitation replicates were conducted per experiment. Data are represented as mean ± S.D. (n = 3, *p < 0.05, two-tailed Student’s t test).
# (§2) Approximately 2×10^6 HEK293T cells per sample were treated for 10 min in 1% (v/v) formaldehyde at room temperature to crosslink protein-DNA complexes. Crosslinking was stopped with glycine at a final concentration of 125 mM. Cells were washed twice with cold PBS and swelled on ice for 10 min in 25 mM HEPES pH 8, 1.5 mM MgCl2, 10 mM KCl, 0.1% NP-40, 1 mM DTT and 1× protease inhibitor cocktail set III (Calbiochem). Following Dounce homogenization, the nuclei were collected and resuspended in 1 ml sonication buffer (50 mM HEPES pH 8, 140 mM NaCl, 1 mM EDTA, 0.1% sodium deoxycholate, 0.1% SDS and 1× protease inhibitor cocktail). DNA was sonicated in an ultrasonic bath (Bioruptor Diagenode) to an average length of 200-500 bp. After addition of 1% (v/v) Triton X-100, samples were centrifuged at 15,000 ×g. […] Immunoprecipitated DNA (1.5 µl) and serial dilutions of the 10% input DNA (1:4, 1:20, 1: 100, and 1:500) were analyzed by SYBR-Green real-time qPCR.
# [3] = tested on: H3K9me2 along SERF1A, MYOD, GAPDH; experiment: Specificity control ChIP-qPCR of H3K9me2 on SERF1A, MYOD and GAPDH in HEK293T cells; type: cell-based, human
# Method: FIGS. 6A-6D show antisense oligonucleotides and their effects on chromatin. […] Uppercase, exonic nucleotide sequence. Lowercase, intronic sequences. Upstream highlight, binding site for ASO1. Downstream highlight, binding site for ASO2. Levels of H3K9me2 deposition along small EDRK-rich factor 1A (SERF1A, upstream of SMN2) (FIG. 6B), Myoblast Determination Protein (MYOD) (FIG. 6C), and Glyceraldehyde 3-phosphate dehydrogenase (GAPDH) (FIG. 6D), were assessed by ChIP-qPCR in HEK293T cells. Data represented as mean ± S.D. (n = 4, *p < 0.05, two-tailed Student’s t test).
# as §2, with “cocktail).” for “cocktail). DNA was sonicated in an ultrasonic bath (Bioruptor Diagenode) to an average length of 200-500 bp. After addition of 1% (v/v) Triton X-100, samples were centrifuged at 15,000 ×g.”
# [4] = tested on: H3K9me2 along the human SMN2 transgene; experiment: ChIP-qPCR of H3K9me2 along the human SMN2 transgene in brain and liver of P7 SMA mice; type: in vivo, mouse; conditions: P7 SMA mice injected with ASO1
# Method: as §1, §2
# [5] = tested on: H3K27 trimethylation over the SMN2 gene; experiment: ChIP-qPCR of H3K27 trimethylation over the SMN2 gene in HEK293T cells; type: cell-based, human; conditions: ASO1 transfection
# Method: FIGS. 10A-10D show control experiments for the opposing roles of ASO1 on chromatin and splicing. […] Top: control Western blot for efficient expression of the c-Myc-SMN fusion protein encoded by plasmid pcDNA3.1+SMN1mycHIS (Addgene, cat.# 71687) using anti-tubulin (tub.) as loading control. Bottom: SMN2 E7 RT-PCR of cells co-transfected with ASO1 and plasmid. […] Distribution of these histone marks was assessed by ChIP-qPCR, with amplicons mapping near the numbered exons (E) and introns (i). Three independent immunoprecipitation replicates were conducted per experiment. Data are represented as mean ± S.D. (n = 5; in all cases p was much higher than 0.05, two-tailed Student’s t test). […] Top: control Western blot for efficient expression of the GFPRNaseH fusion protein encoded by plasmid pEGFP-RNASEH1 (Addgene, cat.# 108699), using anti-actin (act.) as loading control. Bottom: SMN2 E7 RT-PCR of cells co-transfected with ASO1 and the RNase H plasmid. […] Top: control Western blot for efficient AGO1 knockdown using anti-tubulin (tub.) as loading control. […]
# Approximately 2×10^6 HEK293T cells per sample were treated for 10 min in 1% (v/v) formaldehyde at room temperature to crosslink protein-DNA complexes. […] Immunoprecipitated DNA (1.5 µl) and serial dilutions of the 10% input DNA (1:4, 1:20, 1: 100, and 1:500) were analyzed by SYBR-Green real-time qPCR.
Compound,clinical effectiveness in SMA [1],RNAPII accumulation on the SMN2 transgene in liver and brain [2],"H3K9 dimethylation in control genes (same TAD: SERF1A; outside TAD: MYOD, GAPDH) [3]",H3K9 dimethylation on the SMN2 transgene in liver and brain [4],H3K27 trimethylation over the SMN2 gene [5]
"CCCC(CCC)C(=O)O [VPA, valproic acid]",failed to demonstrate effectiveness,–,–,–,–
ASO1: 5′-ATTCACTTTCATAATGCTGG-3′ 2′-O-methoxyethyl-modified oligonucleotide with phosphorothioate backbone and all 5-methyl cytosines; nusinersen variant with 2-nucleotide extension (antisense eA*eT*eT*e[5mC]*eA*e[5mC]*eT*eT*eT*e[5mC]*eA*eT*eA*eA*eT*eG*e[5mC]*eT*eG*eG),–,RNAPII accumulation,neither ASO1 nor ASO2 promoted H3K9 dimethylation,higher H3K9 dimethylation,not affected
